One assay concerns the target T1, S. pombe Lumazine Synthase (Schizosaccharomyces pombe, UniProt Q9UUB1).
T1 sequence (Q9UUB1 1-159): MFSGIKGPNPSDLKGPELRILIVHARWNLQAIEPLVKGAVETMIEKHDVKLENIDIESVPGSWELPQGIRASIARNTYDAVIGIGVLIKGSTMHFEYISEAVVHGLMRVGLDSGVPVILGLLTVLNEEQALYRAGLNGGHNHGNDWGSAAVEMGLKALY
In words: Lumazine synthase kinetic inhibition assay. In kind it is biochemical. The conditions noted are these: recombinant S. pombe LS.
As to `O=c1[nH]c(/C=C/c2ccc[nH]2)c([N+](=O)[O-])c(=O)[nH]1` [Compound 40, (E)-5-Nitro-6-[2-(1H-pyrrol-2-yl)vinyl]pyrimidine-2,4(1H,3H)-dione], the Mode of inhibition result is “Mixed”.

As to `O=c1[nH]c(/C=C/c2ccc3ccccc3c2)c([N+](=O)[O-])c(=O)[nH]1` [Compound 43, (E)-6-(2-(Naphthalene-2-yl)vinyl)-5-nitropyrimidine-2,4(1H,3H)-dione], the Mode of inhibition entry is “Mixed”.

Consider `O=c1[nH]c(/C=C/C2C=Nc3ccccc32)c([N+](=O)[O-])c(=O)[nH]1` (centres unmarked) [Compound 44, (E)-6-(2-(3H-Indol-3-yl)vinyl)-5-nitropyrimidine-2,4(1H,3H)-dione], for which the Mode of inhibition result is “Mixed”.

Staying with this assay, now noted: recombinant S. pombe LS; fit of the compound's data set; pH 7.0.
On to `O=c1[nH]c(/C=C/c2ccc[nH]2)c([N+](=O)[O-])c(=O)[nH]1` [Compound 40, (E)-5-Nitro-6-[2-(1H-pyrrol-2-yl)vinyl]pyrimidine-2,4(1H,3H)-dione], for which the “kcat (rate constant ES → E + P)” value amounted to 0.0173 ± 0.00017 s⁻¹.

In the case of `O=c1[nH]c(/C=C/c2ccc3ccccc3c2)c([N+](=O)[O-])c(=O)[nH]1` [Compound 43, (E)-6-(2-(Naphthalene-2-yl)vinyl)-5-nitropyrimidine-2,4(1H,3H)-dione], the “kcat (rate constant ES → E + P)” value came to 0.043 ± 0.00033 s⁻¹.

`O=c1[nH]c(/C=C/C2C=Nc3ccccc32)c([N+](=O)[O-])c(=O)[nH]1` (centres unmarked) [Compound 44, (E)-6-(2-(3H-Indol-3-yl)vinyl)-5-nitropyrimidine-2,4(1H,3H)-dione]: the “kcat (rate constant ES → E + P)” value came out at 0.0327 ± 0.00067 s⁻¹.

Still in this assay, the particulars now being: recombinant S. pombe LS; substrate 1 varied, 2 constant; pH 7.0.
`O=c1[nH]c(/C=C/c2ccc[nH]2)c([N+](=O)[O-])c(=O)[nH]1` [Compound 40, (E)-5-Nitro-6-[2-(1H-pyrrol-2-yl)vinyl]pyrimidine-2,4(1H,3H)-dione]: the “Kis (inhibitor dissociation constant, ES + I ⇌ ESI)” value was determined as 248 ± 67 µM.

For the molecule `O=c1[nH]c(/C=C/c2ccc3ccccc3c2)c([N+](=O)[O-])c(=O)[nH]1` [Compound 43, (E)-6-(2-(Naphthalene-2-yl)vinyl)-5-nitropyrimidine-2,4(1H,3H)-dione], the “Kis (inhibitor dissociation constant, ES + I ⇌ ESI)” value was 476 ± 89 µM.

With `O=c1[nH]c(/C=C/C2C=Nc3ccccc32)c([N+](=O)[O-])c(=O)[nH]1` (centres unmarked) [Compound 44, (E)-6-(2-(3H-Indol-3-yl)vinyl)-5-nitropyrimidine-2,4(1H,3H)-dione], the “Kis (inhibitor dissociation constant, ES + I ⇌ ESI)” value amounted to 376 ± 127 µM.

For the next assay, the target named is M. tuberculosis Lumazine Synthase (Mycobacterium tuberculosis, UniProt P9WHE9).
Chain of M. tuberculosis Lumazine Synthase (P9WHE9 whole entry): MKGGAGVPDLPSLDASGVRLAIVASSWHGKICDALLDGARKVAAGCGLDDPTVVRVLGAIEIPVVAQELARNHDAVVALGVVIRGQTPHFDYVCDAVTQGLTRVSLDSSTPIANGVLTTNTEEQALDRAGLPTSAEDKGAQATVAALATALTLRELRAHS
Assay: not given
In kind it is biochemical. The conditions noted are these: recombinant M. tuberculosis LS.
Regarding `O=c1[nH]c(/C=C/c2ccc(F)cc2)c([N+](=O)[O-])c(=O)[nH]1` [Compound 29, (E)-6-(4-Fluorostyryl)-5-nitropyrimidine-2,4(1H,3H)-dione], the Mode of inhibition entry is recorded as “Mixed”.

In the case of `O=c1[nH]c(/C=C/c2cc([N+](=O)[O-])ccc2O)c([N+](=O)[O-])c(=O)[nH]1` [Compound 32, (E)-6-(2-Hydroxy-5-nitrostyryl)-5-nitropyrimidine-2,4(1H,3H)-dione], the Mode of inhibition result is listed as “Competitive”.

As for `O=c1[nH]c(/C=C/c2ccc[nH]2)c([N+](=O)[O-])c(=O)[nH]1` [Compound 40, (E)-5-Nitro-6-[2-(1H-pyrrol-2-yl)vinyl]pyrimidine-2,4(1H,3H)-dione], the Mode of inhibition result is on record as “Partial”.

Turning to `O=c1[nH]c(/C=C/c2ccc3ccccc3c2)c([N+](=O)[O-])c(=O)[nH]1` [Compound 43, (E)-6-(2-(Naphthalene-2-yl)vinyl)-5-nitropyrimidine-2,4(1H,3H)-dione], the Mode of inhibition entry is given as “Partial”.

As for `O=c1[nH]c(/C=C/C2C=Nc3ccccc32)c([N+](=O)[O-])c(=O)[nH]1` (centres unmarked) [Compound 44, (E)-6-(2-(3H-Indol-3-yl)vinyl)-5-nitropyrimidine-2,4(1H,3H)-dione], the Mode of inhibition entry is “Mixed”.

The same assay, now with this note: recombinant M. tuberculosis LS; fit of the compound's data set; pH 7.0.
Consider `O=c1[nH]c(/C=C/c2ccc(F)cc2)c([N+](=O)[O-])c(=O)[nH]1` [Compound 29, (E)-6-(4-Fluorostyryl)-5-nitropyrimidine-2,4(1H,3H)-dione], for which the “kcat (rate constant ES → E + P)” value was determined as 0.0065 ± 0.00033 s⁻¹.

`O=c1[nH]c(/C=C/c2cc([N+](=O)[O-])ccc2O)c([N+](=O)[O-])c(=O)[nH]1` [Compound 32, (E)-6-(2-Hydroxy-5-nitrostyryl)-5-nitropyrimidine-2,4(1H,3H)-dione]: the “kcat (rate constant ES → E + P)” value came out at 0.0107 ± 0.0005 s⁻¹.

Take `O=c1[nH]c(/C=C/c2ccc[nH]2)c([N+](=O)[O-])c(=O)[nH]1` [Compound 40, (E)-5-Nitro-6-[2-(1H-pyrrol-2-yl)vinyl]pyrimidine-2,4(1H,3H)-dione]: the “kcat (rate constant ES → E + P)” value turned out to be 0.00633 ± 0.00017 s⁻¹.

In the case of `O=c1[nH]c(/C=C/c2ccc3ccccc3c2)c([N+](=O)[O-])c(=O)[nH]1` [Compound 43, (E)-6-(2-(Naphthalene-2-yl)vinyl)-5-nitropyrimidine-2,4(1H,3H)-dione], the “kcat (rate constant ES → E + P)” value was 0.00617 ± 0.00017 s⁻¹.

On to `O=c1[nH]c(/C=C/C2C=Nc3ccccc32)c([N+](=O)[O-])c(=O)[nH]1` (centres unmarked) [Compound 44, (E)-6-(2-(3H-Indol-3-yl)vinyl)-5-nitropyrimidine-2,4(1H,3H)-dione], for which the “kcat (rate constant ES → E + P)” value came out at 0.00667 ± 0.00017 s⁻¹.

Staying with this assay, now noted: recombinant M. tuberculosis LS; substrate 1 varied, 2 constant; pH 7.0.
With `O=c1[nH]c(/C=C/c2ccc(F)cc2)c([N+](=O)[O-])c(=O)[nH]1` [Compound 29, (E)-6-(4-Fluorostyryl)-5-nitropyrimidine-2,4(1H,3H)-dione], the “Kis (inhibitor dissociation constant, ES + I ⇌ ESI)” value was 25 ± 8 µM.

As for `O=c1[nH]c(/C=C/c2ccc[nH]2)c([N+](=O)[O-])c(=O)[nH]1` [Compound 40, (E)-5-Nitro-6-[2-(1H-pyrrol-2-yl)vinyl]pyrimidine-2,4(1H,3H)-dione], the “Kis (inhibitor dissociation constant, ES + I ⇌ ESI)” value was 42 ± 12 µM.

For the molecule `O=c1[nH]c(/C=C/c2ccc3ccccc3c2)c([N+](=O)[O-])c(=O)[nH]1` [Compound 43, (E)-6-(2-(Naphthalene-2-yl)vinyl)-5-nitropyrimidine-2,4(1H,3H)-dione], the “Kis (inhibitor dissociation constant, ES + I ⇌ ESI)” value was 72 ± 31 µM.

Regarding `O=c1[nH]c(/C=C/C2C=Nc3ccccc32)c([N+](=O)[O-])c(=O)[nH]1` (centres unmarked) [Compound 44, (E)-6-(2-(3H-Indol-3-yl)vinyl)-5-nitropyrimidine-2,4(1H,3H)-dione], the “Kis (inhibitor dissociation constant, ES + I ⇌ ESI)” value is 488 ± 233 µM.

The target in the next assay is M. tuberculosis Riboflavin Synthase (Mycobacterium tuberculosis, UniProt P9WK35). The assay can be described thus: Riboflavin synthase kinetic inhibition assay. In kind it is biochemical. The conditions noted are these: recombinant M. tuberculosis RS.
Chain of M. tuberculosis Riboflavin Synthase (P9WK35 whole entry): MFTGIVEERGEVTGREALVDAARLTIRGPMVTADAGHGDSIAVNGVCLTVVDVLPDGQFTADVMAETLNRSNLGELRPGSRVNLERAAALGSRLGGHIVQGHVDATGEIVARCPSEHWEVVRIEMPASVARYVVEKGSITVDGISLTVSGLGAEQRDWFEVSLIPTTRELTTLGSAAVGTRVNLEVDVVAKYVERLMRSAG
For `O=c1[nH]c(/C=C/c2ccc(F)cc2)c([N+](=O)[O-])c(=O)[nH]1` [Compound 29, (E)-6-(4-Fluorostyryl)-5-nitropyrimidine-2,4(1H,3H)-dione], the Mode of inhibition result is “Mixed”.

Take `O=c1[nH]c(/C=C/c2cc([N+](=O)[O-])ccc2O)c([N+](=O)[O-])c(=O)[nH]1` [Compound 32, (E)-6-(2-Hydroxy-5-nitrostyryl)-5-nitropyrimidine-2,4(1H,3H)-dione]: the Mode of inhibition result is “Uncompetitive”.

Regarding `O=c1[nH]c(CCc2ccc(O)cc2)c([N+](=O)[O-])c(=O)[nH]1` [Compound 48, 6-(4-Hydroxy-2-phenethyl)-5-nitropyrimidine-2,4(1H,3H)-dione], the Mode of inhibition result was “Uncompetitive”.

The same assay, now with this note: recombinant M. tuberculosis RS; fit of the compound's data set; pH 7.0.
For the molecule `O=c1[nH]c(/C=C/c2ccc(F)cc2)c([N+](=O)[O-])c(=O)[nH]1` [Compound 29, (E)-6-(4-Fluorostyryl)-5-nitropyrimidine-2,4(1H,3H)-dione], the “kcat (rate constant ES → E + P)” value amounted to 0.00667 ± 0.00017 s⁻¹.

With `O=c1[nH]c(/C=C/c2cc([N+](=O)[O-])ccc2O)c([N+](=O)[O-])c(=O)[nH]1` [Compound 32, (E)-6-(2-Hydroxy-5-nitrostyryl)-5-nitropyrimidine-2,4(1H,3H)-dione], the “kcat (rate constant ES → E + P)” value worked out at 0.00783 ± 0.00017 s⁻¹.

As for `O=c1[nH]c(CCc2ccc(O)cc2)c([N+](=O)[O-])c(=O)[nH]1` [Compound 48, 6-(4-Hydroxy-2-phenethyl)-5-nitropyrimidine-2,4(1H,3H)-dione], the “kcat (rate constant ES → E + P)” value is 0.00567 ± 0.00017 s⁻¹.

The assay is the same for the next values; noted with them: recombinant M. tuberculosis RS; pH 7.0.
In the case of `O=c1[nH]c(/C=C/c2ccc(F)cc2)c([N+](=O)[O-])c(=O)[nH]1` [Compound 29, (E)-6-(4-Fluorostyryl)-5-nitropyrimidine-2,4(1H,3H)-dione], the “Kis (inhibitor dissociation constant, ES + I ⇌ ESI)” value turned out to be 776 ± 294 µM.

`O=c1[nH]c(/C=C/c2cc([N+](=O)[O-])ccc2O)c([N+](=O)[O-])c(=O)[nH]1` [Compound 32, (E)-6-(2-Hydroxy-5-nitrostyryl)-5-nitropyrimidine-2,4(1H,3H)-dione]: the “Kis (inhibitor dissociation constant, ES + I ⇌ ESI)” value was 800 ± 107 µM.

`O=c1[nH]c(CCc2ccc(O)cc2)c([N+](=O)[O-])c(=O)[nH]1` [Compound 48, 6-(4-Hydroxy-2-phenethyl)-5-nitropyrimidine-2,4(1H,3H)-dione]: the “Kis (inhibitor dissociation constant, ES + I ⇌ ESI)” value was 449 ± 45 µM.

The target of another assay is E. coli Riboflavin Synthase (Escherichia coli, UniProt P0AFU8). The assay can be described thus: Riboflavin synthase kinetic inhibition assay. The conditions noted are these: recombinant E. coli RS. Format: biochemical.
Chain of E. coli Riboflavin Synthase (P0AFU8 whole entry): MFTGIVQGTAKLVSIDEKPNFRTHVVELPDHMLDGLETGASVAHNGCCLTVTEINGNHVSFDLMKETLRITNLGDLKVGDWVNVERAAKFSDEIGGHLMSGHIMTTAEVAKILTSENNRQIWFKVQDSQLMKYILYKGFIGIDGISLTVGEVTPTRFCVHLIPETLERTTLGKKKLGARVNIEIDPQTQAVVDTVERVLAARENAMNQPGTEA
Turning to “5-Amino-(2-hydroxy-2-phenethyl)pyrimidine-2,4-(1H,3H)-dione [Compound 50]”, the Mode of inhibition result is “Uncompetitive”.

Turning to `O=c1[nH]c(/C=C/c2ccc[nH]2)c([N+](=O)[O-])c(=O)[nH]1` [Compound 40, (E)-5-Nitro-6-[2-(1H-pyrrol-2-yl)vinyl]pyrimidine-2,4(1H,3H)-dione], the Mode of inhibition entry is “Mixed”.

`O=c1[nH]c(/C=C/c2ccc3ccccc3c2)c([N+](=O)[O-])c(=O)[nH]1` [Compound 43, (E)-6-(2-(Naphthalene-2-yl)vinyl)-5-nitropyrimidine-2,4(1H,3H)-dione]: the Mode of inhibition result was “Uncompetitive”.

For the molecule `O=c1[nH]c(/C=C/C2C=Nc3ccccc32)c([N+](=O)[O-])c(=O)[nH]1` (centres unmarked) [Compound 44, (E)-6-(2-(3H-Indol-3-yl)vinyl)-5-nitropyrimidine-2,4(1H,3H)-dione], the Mode of inhibition entry is listed as “Uncompetitive”.

Staying with this assay, now noted: recombinant E. coli RS; fit of the compound's data set; pH 7.0.
For “5-Amino-(2-hydroxy-2-phenethyl)pyrimidine-2,4-(1H,3H)-dione [Compound 50]”, the “kcat (rate constant ES → E + P)” value stood at 0.07 ± 0.0017 s⁻¹.

Consider `O=c1[nH]c(/C=C/c2ccc[nH]2)c([N+](=O)[O-])c(=O)[nH]1` [Compound 40, (E)-5-Nitro-6-[2-(1H-pyrrol-2-yl)vinyl]pyrimidine-2,4(1H,3H)-dione], for which the “kcat (rate constant ES → E + P)” value was 0.06 ± 0.0017 s⁻¹.

Turning to `O=c1[nH]c(/C=C/c2ccc3ccccc3c2)c([N+](=O)[O-])c(=O)[nH]1` [Compound 43, (E)-6-(2-(Naphthalene-2-yl)vinyl)-5-nitropyrimidine-2,4(1H,3H)-dione], the “kcat (rate constant ES → E + P)” value stood at 0.0553 ± 0.00083 s⁻¹.

As for `O=c1[nH]c(/C=C/C2C=Nc3ccccc32)c([N+](=O)[O-])c(=O)[nH]1` (centres unmarked) [Compound 44, (E)-6-(2-(3H-Indol-3-yl)vinyl)-5-nitropyrimidine-2,4(1H,3H)-dione], the “kcat (rate constant ES → E + P)” value came out at 0.0567 ± 0.00067 s⁻¹.

The same assay, now with this note: recombinant E. coli RS; pH 7.0.
Consider “5-Amino-(2-hydroxy-2-phenethyl)pyrimidine-2,4-(1H,3H)-dione [Compound 50]”, for which the “Kis (inhibitor dissociation constant, ES + I ⇌ ESI)” value is 788 ± 148 µM.

For the molecule `O=c1[nH]c(/C=C/c2ccc[nH]2)c([N+](=O)[O-])c(=O)[nH]1` [Compound 40, (E)-5-Nitro-6-[2-(1H-pyrrol-2-yl)vinyl]pyrimidine-2,4(1H,3H)-dione], the “Kis (inhibitor dissociation constant, ES + I ⇌ ESI)” value worked out at 806 ± 401 µM.

As for `O=c1[nH]c(/C=C/c2ccc3ccccc3c2)c([N+](=O)[O-])c(=O)[nH]1` [Compound 43, (E)-6-(2-(Naphthalene-2-yl)vinyl)-5-nitropyrimidine-2,4(1H,3H)-dione], the “Kis (inhibitor dissociation constant, ES + I ⇌ ESI)” value was determined as 270 ± 32 µM.

As for `O=c1[nH]c(/C=C/C2C=Nc3ccccc32)c([N+](=O)[O-])c(=O)[nH]1` (centres unmarked) [Compound 44, (E)-6-(2-(3H-Indol-3-yl)vinyl)-5-nitropyrimidine-2,4(1H,3H)-dione], the “Kis (inhibitor dissociation constant, ES + I ⇌ ESI)” value was determined as 426 ± 64 µM.

The record behind these values is article PMC2760403 (The Journal of organic chemistry, 2009).
